Bridge positions count the residues as written; N and C are the ends. Ends that are not written are not given here.
Legend:
[1] = tested on: cytotoxic T-cell mediated lympholysis of 51Cr labelled EL-4 (H-2b) targets; assay: 4 hour 51Cr release assay: inhibition of cytotoxic T-cell mediated lympholysis by peptide; assay type: cell-based, mouse (AKR/J anti C57BL/6 effectors); conditions: for inhibition of specific lysis of targets: peptide 100, 10 or 1 μg/ml pre-incubated 30 minutes at 37° C. with effectors, Effector:Target 30:1, 10:1, 3:1, 1:1, 4 hour lysis
Experimental: The effect of peptide on cytotoxicity was measured in a 4 hour ^51 Cr release assay. H-2^b specific effectors were generated in a AKR/J (H-2^k) anti C57BL/6 (H-2^b) mixed lymphocyte reaction. The stimulators (C57BL/6 spleen cells) are gamma-irradiated at 1500 RADS. The targets were obtained from a tumor cell line, EL-4 (H-2^b), that were labelled with Na^51 CrO4. On Day 5 the effectors are harvested and counted. The peptide, at concentrations of 100 μg/ml, 10 μg/ml or 1 μg/ml, was first incubated for 30 minutes at 37° C. with effectors of varying numbers and then ^51 Cr labelled targets were added in a 4 hour specific lysis experiment. The target cell lysis was assessed at Effector:Target ratios of 30:1, 10:1, 3:1, and 1:1. Toxic effects of the peptide was determined by the % specific lysis above background that was obtained by incubating just peptide and labelled targets. No toxic effects were observed. Also, anti-CD8 monoclonal antibody that blocks the interaction resulting in lowered lympholysis is used in the assay.

[2] = tested on: activation of CTL in AKR/J anti C57BL/6 mixed lymphocyte reaction; assay: Inhibition of activation/generation of cytotoxic T-cells: mixed lymphocyte reaction in presence of peptide, then 51Cr release; assay type: cell-based, mouse; conditions: peptide present during MLR; effectors washed on Day-6; 4-hour lysis of EL-4 targets
Experimental: The effect of the peptide on the activation of CTL capable of lympholysis was determined by generating effector T-cells in AKR/J anti C57BL/6 mixed lymphocyte reaction in the presence of peptide. On Day-6, effectors are washed and then ^51 Cr-labelled EL-4 targets were added in a 4-hour specific lysis experiment.

[3] = tested on: allogeneic skin graft rejection; assay: Murine skin transplantation (tail skin allograft onto bm1 recipients); assay type: in vivo, mouse
Description: Tail skin from C57BL/7 [H-2b] donor is grafted onto the ventral side of bm1 recipient tails. The donors are asphyxiated and 2×4 mm tail pieces are cut. These grafts are placed in 0.1% BSA in PBS on ice. Recipients are anesthetized in isoflurane chamber. While still anesthetized, grafting beds of 10×10 mm on the ventral side of the tail are cut. Two grafting beds per mouse are made, one for syngeneic graft and the other for the allogeneic graft. The grafts are turned 180' and placed in the beds such that the hair of the graft grows in the opposite direction. The grafts are trimmed if necessary such that they fit in the beds without skin hanging over the edge of the beds. A blunt glass tube is placed over the grafts and taped into place. This glass is removed on day 2 post-transplantation.
Five animals per treatment group are used and treatment is prior to transplantation. The untreated group is injected into the tail vein with 200 μl of PBS on Day 0.
Grafts are observed every other day for signs of rejection. […] Grafts are considered rejected due to mechanical failure if the grafts are rejected by Day 3.

[4] = tested on: GVHD, primarily CD8+ based; assay: Murine model of GVHD (B10.BR ATBM plus CD8+ T-cells into lethally irradiated host); assay type: in vivo, mouse; conditions: 0.5 mgs peptide on Day 0, 3 and 6; FIG. 2
Experimental: Donor bone marrow is harvested from tibias and femurs of B10.BR mice. T-cells are eliminated from the bone marrow by treatment with anti-Thy1.2 and complement. Complement treatment for 2 cycles at 37° C. for 1 hour each results in more than 90% pure population of bone marrow cells. 10×10^6 T-cell depleted bone marrow [ATBM] cells are injected into the tail vein. Donor splenocytes undergo red blood cell lysis followed by B cell and CD4+ T-cells are depletion using anti-J1J and anti-RL147 antibodies, respectively. This purified CD8+ T-cell population from donors (5×10^6 cells) is injected into the tail vein of the animal. The host is lethally irradiated at 850 cGy approximately 6 hours prior to bone marrow transplantation. Characteristic features of murine acute GVHD include weight loss, diarrhea and loss of hair and death. Body weights were monitored before and after treatment. The treated mice were housed in sterile conditions and observed daily for acute GVHD-like reactions. Lethally irradiated mice reconstituted with ATBM only survive without signs of disease. Mice are treated with 0.5 mgs of SC2 peptide on Day 0, 3 and 6.

Substance | inhibition of specific lysis of targets [1] | inhibition of specific lysis of targets (effectors generated in presence of peptide) [2] | further results
C-S-S-H-N-K-P-C (CSSHNKPC) [SC2] | inhibits specific lysis of targets in a concentration dependent manner | show inhibition of specific lysis of targets in a concentration dependent manner | skin graft survival ([3]; 0.5 mgs/200 μl PBS in the tail vein on Day 0, FIG. 1): consistently prolonged skin graft survival with biological significance; onset of GVHD [4]: delays the onset of GVHD
Wu-2: linear peptide consisting of human CD8 amino acids 37-47 (CQPRGAAASPC) |  |  | rejection of skin grafts ([3]; skin transplantation assay of Example 4, FIG. 4): significant delay in rejection
CLSQNKPC (disulfide 1-8 (inferred)) [Wu-1, cyclic peptide consisting of human CD8 amino acids 52-57 with amino terminal and carboxy terminal cysteines] |  |  | inhibition of killing ([1]; 51[Cr]-release assay as described in Example 2, FIG. 3): approximately 50%
C-D-E-K-L-N-S-S-K-L-C (CDEKLNSSKLC; not fully specified; printed as C-D-E-K-L-N-S-S-K-L-C; cysteine pairing not given here) [SC11] | does not | show inhibition of specific lysis of targets in a concentration dependent manner | 
